Data on four compounds can be found in patent publication US20230074545A1, “TREATMENT OF CANCER WITH CDK12/13 INHIBITORS” (Kinnate Biopharma Inc., priority 2019, published 2023).

Like-named read-outs stand apart in the source and are kept apart here.

In one assay the target is T1, CDK9 (Homo sapiens, UniProt P50750).
T1 construct: either as full-length or enzymatically active fragments; purchased ProQinase GmbH (Reaction Biology); host or cells: Sf9 insect cells or E. coli
In words: Radiometric kinase assay (33PanQinase). It is filed as biochemical. To be noted: read-out: Inhibition of CDK Activity (molar inhibition in a radiometric assay). How it is done: (§1) The compounds 1-5 (see Table 1) were assayed for kinase activity at ProQinase (ProQinase GmbH, Reaction Biology; Freiburg, Germany) using their commercially available radiometric kinase assay services. Briefly, the compounds were provided as solids and were dissolved to 1×10^−03 M/100% DMSO stock solutions on the day of assay. All protein kinases were provided by ProQinase and were expressed in Sf9 insect cells or in E. coli as recombinant GST-fusion proteins or His-tagged proteins, either as full-length or enzymatically active fragments. All kinases were produced from human cDNAs and purified by either GSH-affinity chromatography or immobilized metal. The purity of the protein kinases was examined by SDS-PAGE/Coomassie staining, the identity was checked by mass spectroscopy. A radiometric protein kinase assay (^33PanQinase® Activity Assay) was used for measuring the kinase activity of the protein kinase. All kinase assays were performed in 96-well FlashPlates™ from PerkinElmer (Boston, Mass., USA) in a 50 microliter reaction volume. The reaction cocktail was pipetted in four steps in the following order: 1) 25 microliter of assay buffer (standard buffer/[gamma-^33P]-ATP); 2) 10 microliter of ATP solution (in H2O); 3) 5 microliter of test compound (in 10% DMSO); 4) 10 microliter of enzyme/substrate mixture.
(§2) As a parameter for assay quality, the Z′-factor (Zhang et al., J. Biomol. Screen. 2: 67-73, 1999) for the low and high controls of each assay plate (n=8) was used. ProQinase's criterion for repetition of an assay plate is a Z′-factor below 0.4.

The target of another assay is T2, CDK2 (Homo sapiens, UniProt P24941).
T2 construct: either as full-length or enzymatically active fragments; purchased ProQinase GmbH (Reaction Biology); host or cells: Sf9 insect cells or E. coli
In words: Radiometric kinase assay (33PanQinase). It is filed as biochemical. To be noted: read-out: Inhibition of CDK Activity (molar inhibition in a radiometric assay). How it is done: as §1, §2

Another assay has as its target T3, CDK13 (Homo sapiens, UniProt Q14004).
T3 construct: either as full-length or enzymatically active fragments; purchased ProQinase GmbH (Reaction Biology)
In words: Radiometric kinase assay (33PanQinase). The format is biochemical. To be noted: read-out: Inhibition of CDK Activity (molar inhibition in a radiometric assay). How it is done:
as §1, §2

The next assay addresses T4, CDK7 (Homo sapiens, UniProt P50613).
T4 construct: either as full-length or enzymatically active fragments; purchased ProQinase GmbH (Reaction Biology); host or cells: Sf9 insect cells or E. coli
The experiment in a line: Radiometric kinase assay (33PanQinase). The format is biochemical. Conditions: read-out: Inhibition of CDK Activity (molar inhibition in a radiometric assay). How it is done: as §1, §2

For a further assay, the target named is T5, CDK12 (Homo sapiens, UniProt Q9NYV4).
T5 construct: either as full-length or enzymatically active fragments; purchased ProQinase GmbH (Reaction Biology)
T5 sequence (Q9NYV4 whole entry, the tested form may be a part): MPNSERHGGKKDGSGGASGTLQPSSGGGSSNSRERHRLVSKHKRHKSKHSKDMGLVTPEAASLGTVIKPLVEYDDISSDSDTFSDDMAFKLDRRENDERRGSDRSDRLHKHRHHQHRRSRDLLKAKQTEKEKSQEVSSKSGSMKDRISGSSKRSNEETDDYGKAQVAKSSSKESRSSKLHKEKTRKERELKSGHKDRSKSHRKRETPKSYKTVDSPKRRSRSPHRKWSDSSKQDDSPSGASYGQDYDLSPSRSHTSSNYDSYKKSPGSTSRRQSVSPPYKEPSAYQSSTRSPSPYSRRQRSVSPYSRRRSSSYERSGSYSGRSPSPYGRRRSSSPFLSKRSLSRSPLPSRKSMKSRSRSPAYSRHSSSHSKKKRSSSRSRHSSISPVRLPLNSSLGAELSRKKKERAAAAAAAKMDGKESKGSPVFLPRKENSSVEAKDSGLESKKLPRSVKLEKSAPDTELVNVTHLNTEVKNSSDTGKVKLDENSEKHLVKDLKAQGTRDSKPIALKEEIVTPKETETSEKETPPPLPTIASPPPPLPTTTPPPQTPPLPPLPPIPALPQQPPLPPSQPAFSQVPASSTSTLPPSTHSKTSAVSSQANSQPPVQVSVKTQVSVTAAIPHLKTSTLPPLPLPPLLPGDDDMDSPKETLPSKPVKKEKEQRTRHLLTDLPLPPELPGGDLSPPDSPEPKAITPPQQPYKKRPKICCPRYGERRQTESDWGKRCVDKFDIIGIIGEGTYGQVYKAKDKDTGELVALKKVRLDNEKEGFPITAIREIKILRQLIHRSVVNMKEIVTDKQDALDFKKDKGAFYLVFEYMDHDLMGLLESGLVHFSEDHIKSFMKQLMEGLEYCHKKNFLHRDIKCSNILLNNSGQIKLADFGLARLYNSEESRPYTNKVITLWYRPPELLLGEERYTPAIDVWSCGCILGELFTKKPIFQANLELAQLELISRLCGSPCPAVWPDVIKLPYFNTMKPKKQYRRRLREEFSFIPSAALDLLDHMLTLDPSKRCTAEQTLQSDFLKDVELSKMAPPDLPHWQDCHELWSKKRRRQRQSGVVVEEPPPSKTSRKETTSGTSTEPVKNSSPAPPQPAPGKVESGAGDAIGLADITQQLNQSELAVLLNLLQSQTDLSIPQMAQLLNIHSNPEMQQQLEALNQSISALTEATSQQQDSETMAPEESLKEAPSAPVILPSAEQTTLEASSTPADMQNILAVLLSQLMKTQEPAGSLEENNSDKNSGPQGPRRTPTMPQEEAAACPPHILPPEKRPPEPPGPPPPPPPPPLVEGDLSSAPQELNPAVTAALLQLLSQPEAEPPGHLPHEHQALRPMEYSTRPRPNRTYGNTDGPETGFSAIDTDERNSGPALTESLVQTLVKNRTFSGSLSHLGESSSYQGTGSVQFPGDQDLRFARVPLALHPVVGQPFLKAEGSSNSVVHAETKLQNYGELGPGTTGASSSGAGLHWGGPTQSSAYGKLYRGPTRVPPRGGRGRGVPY
T5 sequence (O75909 whole entry partner, the tested form may be a part): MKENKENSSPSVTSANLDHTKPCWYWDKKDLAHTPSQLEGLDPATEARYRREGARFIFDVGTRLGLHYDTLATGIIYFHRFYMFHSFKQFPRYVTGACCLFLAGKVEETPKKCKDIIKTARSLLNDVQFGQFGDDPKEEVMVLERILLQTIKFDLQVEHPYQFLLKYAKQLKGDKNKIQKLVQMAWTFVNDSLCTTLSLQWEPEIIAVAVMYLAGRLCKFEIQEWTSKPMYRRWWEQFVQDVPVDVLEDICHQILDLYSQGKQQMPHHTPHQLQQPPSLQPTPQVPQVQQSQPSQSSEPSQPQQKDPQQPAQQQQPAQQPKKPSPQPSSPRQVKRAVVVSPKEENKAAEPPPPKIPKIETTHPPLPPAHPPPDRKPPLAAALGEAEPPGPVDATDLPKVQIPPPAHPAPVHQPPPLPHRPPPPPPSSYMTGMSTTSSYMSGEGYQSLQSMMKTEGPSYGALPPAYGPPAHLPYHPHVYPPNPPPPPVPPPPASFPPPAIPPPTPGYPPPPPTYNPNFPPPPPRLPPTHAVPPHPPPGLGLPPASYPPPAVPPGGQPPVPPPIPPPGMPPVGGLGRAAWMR
In words: Radiometric kinase assay (33PanQinase). It is filed as biochemical. Conditions: read-out: Inhibition of CDK Activity (molar inhibition in a radiometric assay). How it is done:
as §1, §2

The test system of another assay is HCC70 cells. In words: HCC70 cell proliferation (CellTiter-Glo). The format is cell-based. To be noted: Homo sapiens, read-out: Inhibition of Proliferation of HCC70 Cells (IC50 in M). How it is done: HCC70 was the cell line used as a model of triple-negative breast cancer (TNBC). This cell line was obtained from ATCC and was initiated from a primary ductal carcinoma in 1992 (Catalog #CRL-2315; mammary gland primary ductal carcinoma). The HCC-70 tumor cell line was maintained in vitro as a monolayer culture in RPMI-1640 medium supplemented with 10% heat inactivated fetal bovine serum at 37° C. in an atmosphere of 5% CO2 in air.
Representative compounds were tested at different concentrations (from 4 μM to 126.4 pM; 0.5 log serial dilutions) for their ability to inhibit the proliferation of HCC70 cells. Cells were grown in ATCC-formulated RPMI-1640 Medium (ATCC 30-2001)+10% FBS. The cells were cultured at 37° C. in a humidified chamber in the presence of 5% CO2. Proliferation assays were conducted over a 72 hour time period.
(§3) Cells were cultured and maintained as described above, with cells always fed on the day prior to assay. Assays were run with a 2 hour compound exposure followed by a washout and then a 72 hour proliferation time or exposed to the test compounds for 72 hours with no washout of compound. DMSO was used as a control in all wells not receiving test compound and DMSO wells were used for plate normalization. Proliferation and survival of cells was quantified based on the amount of total ATP following cell lysis as determined by using a standard assay kit used according to manufacturer's instructions. Experiments were performed in the same media used by each cell type for growth and maintenance. Cells (5×10^4) were plated in 96 well plates for compound exposure. CellTiter-Glo® (Promega Corporation, Madison, Wis. USA) was used to assess the anti-proliferative effects of the compounds following manufacturer's directions and utilizing the reagents supplied with the CellTiter-Glo® kit.
A general note: In ATP-based viability assays light output follows the ATP content of the culture.

The test system of a further assay is OVCAR-3 cells. The experiment in a line: OVCAR-3 cell proliferation (CellTiter-Glo). The format is cell-based. Conditions: Homo sapiens, read-out: Inhibition of proliferation of OVCAR3 cells (IC50 in M).
Excerpt: OVCAR-3 was used as the cell line to model for ovarian cancer in vitro and in vivo. This cell line was obtained from ATCC (Catalog #HTB-161) and is an adenocarcinoma line from the malignant ascites of a patient with progressive adenocarcinoma of the ovary and embodies a preclinical model of high-grade, serous ovarian cancer (HGSOC). OVCAR-3 has been deemed an appropriate model system in which to study drug resistance in ovarian cancer, and the presence of hormone receptors should be useful for the evaluation of hormonal therapy. OVCAR-3 is resistant to clinically relevant concentrations of adriamycin, melphalan and cisplatin.
Compounds 1-5 were tested at different concentrations (from 4 μM to 126.4 pM; 0.5 log serial dilutions) for their ability to inhibit the proliferation of OVCAR-3 cells. Cells were grown in ATCC-formulated RPMI-1640 Medium (ATCC 30-2001)+10% FBS. The cells were cultured at 37° C. in a humidified chamber in the presence of 5% CO2. Proliferation assays were conducted over a 72 hour time period.
as §3

Assay [1] deals with RNA polymerase II. In words: Phosphorylation of RNA polymerase II (pS2/S2) in HCC70 xenograft. It is filed as in vivo, CB-17 SCID mice. Conditions: intravenous. How it is done:
The ability of compound 4 and compound 5 to inhibit phosphorylation of RNA polymerase II at the S2 unit was analyzed in a mouse xenograft model of triple-negative breast cancer. CB-17 SCID mice were inoculated with the HCC70 cells as the in vivo model for triple negative breast cancer. Each mouse was inoculated subcutaneously on the right flank with HCC70 tumor cells (5×106) in 0.1 mL of RPMI-1640 Medium and Matrigel mixture (1:1 ratio) for tumor development. The treatment started when the mean tumor size reached approximately 100-150 mm^3. Mice were treated intravenously with vehicle only, 20 mg/kg of compound 4, 25 mg/kg of compound 4, 10 mg/kg of compound 5, or 25 mg/kg of compound 5 for 2 hours. Measurements were taken at 0.5 hours, 6 hours and 24 hours after the dose. The amount of phosphorylated RNA polymerase II and the total amount of RNA polymerase II was analyzed. The values were normalized by taking the ratio of the phosphorylated RNA polymerase II to the total RNA polymerase II (pS2/S2).

For assay [2], the system named is RNA polymerase II. In words: Inhibition of phosphorylation of RNA polymerase II in NCI-H82 cells. To be noted: Homo sapiens, 2 hours, phosphorylated/total RNA polymerase II. It is filed as cell-based. How it is done: CDK12 and CDK13 phosphorylate RNA polymerase II. The ability of compound 1 to inhibit phosphorylation of RNA polymerase II was analyzed in NCI-H82 cells. 200,000 cells were plated in each well of a 96 well MSD plate. Cells were treated with compound 1, THZ531 (a positive control), or E9 at concentrations between 4 μM to 126.4 pM (0.5 log serial dilutions) for 2 hours. THZ531 and E9 are further discussed in Gao et al, Cell Chemical Biology 2017. The amount of phosphorylated RNA polymerase II and the total amount of RNA polymerase II was analyzed using antibodies. The values were normalized by taking the ratio of the phosphorylated RNA polymerase II to the total RNA polymerase II. As depicted in FIG. 3A (THZ531), FIG. 3B (Compound 1), and Table 6, increasing the concentration of compound 1 results in a dose-specific increase in the inhibition of phosphorylation of RNA polymerase II.

The mark [3] stands for this setting: HCC70 (no washout), exposed for 72 hours.
Where [4] appears, read: HCC70 (w/washout), 2 hour exposure, washout, 72 hour proliferation.
The mark [5] stands for this setting: OVCAR-3 (no washout), exposed for 72 hours.
The mark [6] stands for this setting: OVCAR-3 (w/washout), 2 hour exposure, washout, 72 hour proliferation.

T3 sequence (Q14004 whole entry, the tested form may be a part): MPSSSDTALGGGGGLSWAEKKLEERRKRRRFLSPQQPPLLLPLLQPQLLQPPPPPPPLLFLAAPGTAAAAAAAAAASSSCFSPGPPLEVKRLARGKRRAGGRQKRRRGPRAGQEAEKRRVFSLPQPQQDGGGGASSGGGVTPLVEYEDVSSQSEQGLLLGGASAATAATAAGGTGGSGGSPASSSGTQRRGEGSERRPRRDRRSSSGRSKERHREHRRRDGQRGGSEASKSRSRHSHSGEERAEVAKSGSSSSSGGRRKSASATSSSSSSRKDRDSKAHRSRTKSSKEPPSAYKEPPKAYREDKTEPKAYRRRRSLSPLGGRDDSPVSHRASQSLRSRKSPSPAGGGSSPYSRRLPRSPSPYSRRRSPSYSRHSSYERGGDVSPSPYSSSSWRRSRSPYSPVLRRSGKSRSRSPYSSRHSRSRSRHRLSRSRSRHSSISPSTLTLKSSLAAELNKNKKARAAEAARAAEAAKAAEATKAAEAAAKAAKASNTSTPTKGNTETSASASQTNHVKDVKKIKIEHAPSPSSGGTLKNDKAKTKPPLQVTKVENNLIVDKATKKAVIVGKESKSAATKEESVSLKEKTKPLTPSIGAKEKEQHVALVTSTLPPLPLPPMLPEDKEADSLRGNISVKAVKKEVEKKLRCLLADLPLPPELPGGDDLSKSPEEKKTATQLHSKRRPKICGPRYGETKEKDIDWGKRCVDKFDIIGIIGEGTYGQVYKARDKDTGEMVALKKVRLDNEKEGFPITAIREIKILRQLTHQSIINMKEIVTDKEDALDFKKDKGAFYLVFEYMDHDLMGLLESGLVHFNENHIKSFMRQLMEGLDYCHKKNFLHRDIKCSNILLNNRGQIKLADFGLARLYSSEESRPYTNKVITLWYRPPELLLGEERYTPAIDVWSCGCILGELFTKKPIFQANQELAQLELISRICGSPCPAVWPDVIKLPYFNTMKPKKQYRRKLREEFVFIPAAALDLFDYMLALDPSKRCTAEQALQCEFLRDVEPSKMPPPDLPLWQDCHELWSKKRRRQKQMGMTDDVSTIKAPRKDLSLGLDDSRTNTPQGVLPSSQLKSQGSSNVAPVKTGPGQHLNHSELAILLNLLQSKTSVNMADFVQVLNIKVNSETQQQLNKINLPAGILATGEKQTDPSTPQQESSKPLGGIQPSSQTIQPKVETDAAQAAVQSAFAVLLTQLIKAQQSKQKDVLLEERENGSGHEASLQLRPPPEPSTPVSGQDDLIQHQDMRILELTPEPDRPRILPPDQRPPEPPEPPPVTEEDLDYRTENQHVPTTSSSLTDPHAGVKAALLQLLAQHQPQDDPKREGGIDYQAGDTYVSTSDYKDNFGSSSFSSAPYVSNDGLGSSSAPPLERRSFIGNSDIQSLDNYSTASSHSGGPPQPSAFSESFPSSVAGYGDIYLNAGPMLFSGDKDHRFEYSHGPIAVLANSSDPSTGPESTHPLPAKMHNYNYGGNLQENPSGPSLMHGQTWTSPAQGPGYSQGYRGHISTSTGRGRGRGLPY
T3 sequence (O75909 whole entry partner, the tested form may be a part): as the sequence (O75909 whole entry partner, the tested form may be a part) above
T1 sequence (P50750 whole entry, the tested form may be a part): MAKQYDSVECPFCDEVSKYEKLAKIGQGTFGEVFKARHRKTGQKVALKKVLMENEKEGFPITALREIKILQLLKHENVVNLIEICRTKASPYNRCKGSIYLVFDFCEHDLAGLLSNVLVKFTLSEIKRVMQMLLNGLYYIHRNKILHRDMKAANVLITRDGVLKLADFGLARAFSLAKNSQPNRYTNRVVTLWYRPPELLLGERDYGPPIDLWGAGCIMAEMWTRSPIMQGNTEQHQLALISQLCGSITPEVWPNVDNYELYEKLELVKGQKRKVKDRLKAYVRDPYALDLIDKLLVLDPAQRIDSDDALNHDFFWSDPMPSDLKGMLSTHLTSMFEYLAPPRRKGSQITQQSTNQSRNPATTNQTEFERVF
T1 sequence (O60563 whole entry partner, the tested form may be a part): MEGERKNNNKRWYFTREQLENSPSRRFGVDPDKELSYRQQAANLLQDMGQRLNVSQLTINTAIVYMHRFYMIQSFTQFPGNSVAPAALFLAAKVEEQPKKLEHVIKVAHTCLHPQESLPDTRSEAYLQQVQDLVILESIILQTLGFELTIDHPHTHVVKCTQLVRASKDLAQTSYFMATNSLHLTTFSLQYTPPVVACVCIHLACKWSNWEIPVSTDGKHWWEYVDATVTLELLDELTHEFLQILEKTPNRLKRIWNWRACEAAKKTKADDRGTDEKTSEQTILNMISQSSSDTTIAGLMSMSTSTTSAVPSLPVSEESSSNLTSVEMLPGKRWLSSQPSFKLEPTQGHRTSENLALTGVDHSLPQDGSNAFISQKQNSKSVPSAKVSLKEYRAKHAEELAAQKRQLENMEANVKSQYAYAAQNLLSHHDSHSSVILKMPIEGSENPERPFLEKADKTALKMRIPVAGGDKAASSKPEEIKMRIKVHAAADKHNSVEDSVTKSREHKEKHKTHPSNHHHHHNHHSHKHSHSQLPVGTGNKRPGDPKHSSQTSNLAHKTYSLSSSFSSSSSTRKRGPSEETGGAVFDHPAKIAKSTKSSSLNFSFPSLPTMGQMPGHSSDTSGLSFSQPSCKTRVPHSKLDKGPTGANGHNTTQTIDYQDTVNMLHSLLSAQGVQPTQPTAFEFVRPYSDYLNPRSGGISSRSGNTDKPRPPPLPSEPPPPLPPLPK

Regarding `C=CC(=O)N(C)c1ccc(C(=O)N2CC[C@@H](Nc3ncc(Cl)c(OC)n3)C2)cc1` [Compound 2, (R)-N-(4-(3-((5-chloro-4-methoxypyrimidin-2-yl)amino)pyrrolidine-1-carbonyl)phenyl)-N-methylacrylamide], the IC50 stood at 1320 nM on CDK9; 11.3 µM on CDK2; 324 nM at CDK13; 518 nM on CDK7; 54.4 nM on CDK12; 11.3 nM in the assay on HCC70 cells (setting [3]). For the same compound, the values for the IC50 with HCC70 cells (setting [4]) and in the assay with OVCAR-3 cells (setting [5]) were 38 nM and 7.63 nM, respectively.

`C=CC(=O)Nc1ccc(C(=O)N2CC[C@@H](Nc3ncc(Cl)cn3)C2)cc1` [Compound 3, (R)-N-(4-(3-((5-chloropyrimidin-2-yl)amino)pyrrolidine-1-carbonyl)phenyl)acrylamide]: the IC50 at CDK9 was found to be 1170 nM; on CDK2 it was 7.93 µM; at CDK13 it was 379 nM; at CDK7, 2790 nM; on CDK12 it was 96.7 nM; in the assay with HCC70 cells (setting [3]), 10.1 nM. Further, the IC50 was determined as 110 nM in the assay on HCC70 cells (setting [4]), 7.45 nM in the assay on OVCAR-3 cells (setting [5]) and 33.7 nM in the assay on OVCAR-3 cells (setting [6]).

Take `C#Cc1cnc(N[C@@H]2CCN(C(=O)c3ccc(NC(=O)C=C)cc3)C2)nc1` [Compound 5, (R)-N-(4-(3-((5-ethynylpyrimidin-2-yl)amino)pyrrolidine-1-carbonyl)phenyl)acrylamide]: the IC50 on CDK9 is 1370 nM; on CDK2, 3.37 µM; on CDK13, 104 nM; at CDK7, 3770 nM; on CDK12, 59.3 nM; in the assay with HCC70 cells (setting [3]), 19.3 nM. Moreover, the values for the IC50 in the assay on HCC70 cells (setting [4]), with OVCAR-3 cells (setting [5]) and with OVCAR-3 cells (setting [6]) were 82.1 nM, 10.1 nM and 103 nM, respectively. The “decrease in the pS2/S2 ratio, 25 mg/kg versus 10 mg/kg” value in the assay on RNA polymerase II [1] (all time points (0.5, 6, 24 hours)) was “greater decrease”. In addition, in the assay with RNA polymerase II [1] (compound 4 20 or 25 mg/kg, compound 5 10 or 25 mg/kg, 0.5, 6 and 24 hours after the dose), the “pS2/S2 compared to treatment with the vehicle alone” value is “reduced the pS2/S2 at all time points”.

For `CN(C)C/C=C/C(=O)Nc1ccc(C(=O)N2CCC[C@@H](Nc3ncc(Cl)c(-c4c[nH]c5ccccc45)n3)C2)cc1` [THZ531, reference compound], the IC50 in the assay with RNA polymerase II [2] is 312 nM.
